According to the NIST ThermoML archive (doi:10.1021/je049671t):
± gives the expanded uncertainty stated by the source.

Assay: xn = mol fraction of the nth substance listed
Details: Liquid, Vibrating tube method

CCCC [butane] + CCC
Details	mass density [kg/m3]
239.04 K, 463.7 kPa, x2 = 0.25	622.82 ± 0.26
239.04 K, 943.7 kPa, x2 = 0.25	623.31 ± 0.27
239.04 K, 1507.7 kPa, x2 = 0.25	623.9 ± 0.27
239.04 K, 1962.4 kPa, x2 = 0.25	624.35 ± 0.27
239.04 K, 2486.4 kPa, x2 = 0.25	624.89 ± 0.28
239.04 K, 3058.3 kPa, x2 = 0.25	625.46 ± 0.28
239.04 K, 3473.7 kPa, x2 = 0.25	625.88 ± 0.29
239.04 K, 3994 kPa, x2 = 0.25	626.39 ± 0.29
239.04 K, 4514.6 kPa, x2 = 0.25	626.9 ± 0.3
239.04 K, 4950 kPa, x2 = 0.25	627.33 ± 0.3
239.04 K, 5524.3 kPa, x2 = 0.25	627.9 ± 0.31
239.04 K, 6029.4 kPa, x2 = 0.25	628.39 ± 0.31
239.04 K, 6518 kPa, x2 = 0.25	628.86 ± 0.32
239.04 K, 6930.6 kPa, x2 = 0.25	629.26 ± 0.32
240 K, 478.5 kPa, x2 = 0.5	606.78 ± 0.27
240 K, 514.9 kPa, x2 = 0.75	589.83 ± 0.27
240 K, 996.7 kPa, x2 = 0.5	607.38 ± 0.27
240 K, 1006.3 kPa, x2 = 0.75	590.44 ± 0.28
240 K, 1479 kPa, x2 = 0.5	607.88 ± 0.28
240 K, 1505.4 kPa, x2 = 0.75	591.03 ± 0.28
240 K, 1962.4 kPa, x2 = 0.5	608.42 ± 0.28
240 K, 2024.2 kPa, x2 = 0.75	591.63 ± 0.29
240 K, 2491.6 kPa, x2 = 0.5	609 ± 0.29
240 K, 2519.5 kPa, x2 = 0.75	592.21 ± 0.29
240 K, 2956 kPa, x2 = 0.5	609.51 ± 0.29
240 K, 3022.7 kPa, x2 = 0.75	592.8 ± 0.3
240 K, 3501.4 kPa, x2 = 0.5	610.09 ± 0.3
240 K, 3519.4 kPa, x2 = 0.75	593.39 ± 0.3
240 K, 3952.5 kPa, x2 = 0.5	610.58 ± 0.3
240 K, 4031.2 kPa, x2 = 0.75	593.97 ± 0.31
240 K, 4493.1 kPa, x2 = 0.5	611.14 ± 0.3
240 K, 4526.8 kPa, x2 = 0.75	594.51 ± 0.31
240 K, 4946.9 kPa, x2 = 0.75	594.99 ± 0.31
240 K, 4972.1 kPa, x2 = 0.5	611.66 ± 0.31
240 K, 5472.1 kPa, x2 = 0.5	612.19 ± 0.31
240 K, 5521.6 kPa, x2 = 0.75	595.64 ± 0.32
240 K, 6000.1 kPa, x2 = 0.5	612.74 ± 0.32
240 K, 6044.8 kPa, x2 = 0.75	596.2 ± 0.33
240 K, 6502.7 kPa, x2 = 0.5	613.25 ± 0.33
240 K, 6539.6 kPa, x2 = 0.75	596.77 ± 0.33
240 K, 6973.1 kPa, x2 = 0.5	613.74 ± 0.33
240 K, 7045.6 kPa, x2 = 0.75	597.3 ± 0.34
260 K, 489.6 kPa, x2 = 0.75	566.44 ± 0.28
260 K, 495.8 kPa, x2 = 0.5	585.02 ± 0.27
260 K, 524.1 kPa, x2 = 0.25	600.69 ± 0.27
260 K, 996.9 kPa, x2 = 0.75	567.21 ± 0.28
260 K, 1001.1 kPa, x2 = 0.5	585.74 ± 0.28
260 K, 1004.9 kPa, x2 = 0.25	601.3 ± 0.27
260 K, 1482.5 kPa, x2 = 0.25	601.91 ± 0.28
260 K, 1504.2 kPa, x2 = 0.75	567.97 ± 0.29
260 K, 1506.4 kPa, x2 = 0.5	586.42 ± 0.28
260 K, 1989.9 kPa, x2 = 0.25	602.54 ± 0.28
260 K, 2003.6 kPa, x2 = 0.75	568.71 ± 0.29
260 K, 2004.6 kPa, x2 = 0.5	587.1 ± 0.29
260 K, 2508.4 kPa, x2 = 0.75	569.45 ± 0.3
260 K, 2517.2 kPa, x2 = 0.5	587.78 ± 0.29
260 K, 2521.3 kPa, x2 = 0.25	603.2 ± 0.29
260 K, 3004 kPa, x2 = 0.25	603.79 ± 0.29
260 K, 3014.9 kPa, x2 = 0.5	588.45 ± 0.3
260 K, 3015.6 kPa, x2 = 0.75	570.19 ± 0.3
260 K, 3449.6 kPa, x2 = 0.25	604.34 ± 0.3
260 K, 3495.5 kPa, x2 = 0.75	570.88 ± 0.31
260 K, 3506 kPa, x2 = 0.5	589.1 ± 0.3
260 K, 4004.5 kPa, x2 = 0.5	589.73 ± 0.31
260 K, 4006.2 kPa, x2 = 0.75	571.62 ± 0.31
260 K, 4007 kPa, x2 = 0.25	605.01 ± 0.3
260 K, 4494.5 kPa, x2 = 0.75	572.27 ± 0.32
260 K, 4511.7 kPa, x2 = 0.25	605.63 ± 0.31
260 K, 4525.9 kPa, x2 = 0.5	590.39 ± 0.31
260 K, 5017.4 kPa, x2 = 0.5	591.03 ± 0.32
260 K, 5017.7 kPa, x2 = 0.25	606.24 ± 0.31
260 K, 5022.8 kPa, x2 = 0.75	573.01 ± 0.32
260 K, 5508.1 kPa, x2 = 0.75	573.69 ± 0.33
260 K, 5512.4 kPa, x2 = 0.25	606.82 ± 0.32
260 K, 5513.7 kPa, x2 = 0.5	591.66 ± 0.32
260 K, 6015.4 kPa, x2 = 0.5	592.29 ± 0.33
260 K, 6034.1 kPa, x2 = 0.25	607.43 ± 0.32
260 K, 6049.2 kPa, x2 = 0.75	574.41 ± 0.34
260 K, 6498.8 kPa, x2 = 0.75	575.04 ± 0.34
260 K, 6503.8 kPa, x2 = 0.25	607.98 ± 0.33
260 K, 6512.1 kPa, x2 = 0.5	592.9 ± 0.33
260 K, 6943 kPa, x2 = 0.75	575.6 ± 0.35
260 K, 6986.6 kPa, x2 = 0.5	593.49 ± 0.34
260 K, 7011.2 kPa, x2 = 0.25	608.56 ± 0.33
280 K, 524.1 kPa, x2 = 0.25	578.3 ± 0.27
280 K, 533.2 kPa, x2 = 0.5	561.24 ± 0.28
280 K, 994.1 kPa, x2 = 0.25	579.05 ± 0.28
280 K, 996.1 kPa, x2 = 0.5	562.05 ± 0.28
280 K, 1496.7 kPa, x2 = 0.25	579.83 ± 0.28
280 K, 1503.2 kPa, x2 = 0.5	562.93 ± 0.29
280 K, 1506.3 kPa, x2 = 0.75	543.19 ± 0.29
280 K, 2004.1 kPa, x2 = 0.5	563.79 ± 0.29
280 K, 2012.9 kPa, x2 = 0.75	544.18 ± 0.3
280 K, 2015.5 kPa, x2 = 0.25	580.63 ± 0.29
280 K, 2501.9 kPa, x2 = 0.5	564.62 ± 0.3
280 K, 2503.9 kPa, x2 = 0.25	581.38 ± 0.29
280 K, 2509.6 kPa, x2 = 0.75	545.11 ± 0.31
280 K, 3000.3 kPa, x2 = 0.25	582.13 ± 0.3
280 K, 3006.4 kPa, x2 = 0.5	565.46 ± 0.31
280 K, 3018.4 kPa, x2 = 0.75	546.06 ± 0.31
280 K, 3502.3 kPa, x2 = 0.25	582.88 ± 0.3
280 K, 3504.2 kPa, x2 = 0.5	566.28 ± 0.31
280 K, 3513.7 kPa, x2 = 0.75	546.96 ± 0.32
280 K, 4015 kPa, x2 = 0.25	583.63 ± 0.31
280 K, 4015 kPa, x2 = 0.75	547.86 ± 0.32
280 K, 4016.7 kPa, x2 = 0.5	567.11 ± 0.32
280 K, 4505.3 kPa, x2 = 0.25	584.35 ± 0.31
280 K, 4508.2 kPa, x2 = 0.75	548.75 ± 0.33
280 K, 4524.6 kPa, x2 = 0.5	567.93 ± 0.32
280 K, 4984.9 kPa, x2 = 0.75	549.59 ± 0.33
280 K, 4998.7 kPa, x2 = 0.5	568.69 ± 0.33
280 K, 5019.7 kPa, x2 = 0.25	585.09 ± 0.32
280 K, 5502.7 kPa, x2 = 0.25	585.78 ± 0.32
280 K, 5506.3 kPa, x2 = 0.5	569.47 ± 0.33
280 K, 5508.8 kPa, x2 = 0.75	550.5 ± 0.34
280 K, 6005.9 kPa, x2 = 0.25	586.49 ± 0.33
280 K, 6009.4 kPa, x2 = 0.5	570.25 ± 0.34
280 K, 6043.7 kPa, x2 = 0.75	551.39 ± 0.35
280 K, 6507.4 kPa, x2 = 0.5	571.01 ± 0.34
280 K, 6517.1 kPa, x2 = 0.25	587.21 ± 0.34
280 K, 6530.4 kPa, x2 = 0.75	552.22 ± 0.35
280 K, 6972.3 kPa, x2 = 0.5	571.72 ± 0.35
280 K, 7009.3 kPa, x2 = 0.25	587.89 ± 0.34
280 K, 7012.2 kPa, x2 = 0.75	553.04 ± 0.36
300 K, 990 kPa, x2 = 0.5	536.26 ± 0.29
300 K, 1002.3 kPa, x2 = 0.75	514.75 ± 0.3
300 K, 1005.5 kPa, x2 = 0.25	555.26 ± 0.28
300 K, 1504.4 kPa, x2 = 0.25	556.28 ± 0.29
300 K, 1504.7 kPa, x2 = 0.75	516.09 ± 0.3
300 K, 1541.4 kPa, x2 = 0.5	537.52 ± 0.3
300 K, 1950.9 kPa, x2 = 0.5	538.44 ± 0.3
300 K, 1972.1 kPa, x2 = 0.75	517.33 ± 0.31
300 K, 2002.5 kPa, x2 = 0.25	557.25 ± 0.3
300 K, 2461.4 kPa, x2 = 0.5	539.56 ± 0.31
300 K, 2497.9 kPa, x2 = 0.25	558.21 ± 0.3
300 K, 2507.7 kPa, x2 = 0.75	518.69 ± 0.31
300 K, 2946.2 kPa, x2 = 0.5	540.6 ± 0.31
300 K, 3009.2 kPa, x2 = 0.75	519.95 ± 0.32
300 K, 3012.5 kPa, x2 = 0.25	559.2 ± 0.31
300 K, 3505.6 kPa, x2 = 0.5	541.79 ± 0.32
300 K, 3507.9 kPa, x2 = 0.25	560.13 ± 0.31
300 K, 3511.5 kPa, x2 = 0.75	521.18 ± 0.33
300 K, 3998.7 kPa, x2 = 0.25	561.02 ± 0.32
300 K, 4015.9 kPa, x2 = 0.5	542.85 ± 0.33
300 K, 4017.5 kPa, x2 = 0.75	522.39 ± 0.33
300 K, 4511.3 kPa, x2 = 0.25	561.97 ± 0.32

mass density [kg/m3]
Details	240 K	260 K	280 K
x2 = 0.25	–	600.21 ± 0.26	577.86 ± 0.27
x2 = 0.5	606.37 ± 0.26	584.58 ± 0.27	560.91 ± 0.27
x2 = 0.75	589.36 ± 0.27	566.05 ± 0.27	541.14 ± 0.28
